For one series, the target named is human cyclin D1-CDK4 (Homo sapiens, UniProt P11802). Kind of series: FlashPlate kinase assay, cyclin D1-CDK4, Rb substrate. The series is classed as biochemical. Conditions: recombinant cyclin D1-CDK4, Rb phosphorylation, 1 μM ATP. Put shortly:
(§1)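 Recombinant human cyclin–CDK complexes, co-expressed in insect cells, phosphorylated His-tagged Rb (aa 386-928) coated on FlashPlates at 10 μg/ml. Reaction used 1 μM ATP plus 4 nM ^33P-ATP and 20 mM MgCl2 for 30 min at room temperature. % inhibition came from scintillation counts against no-enzyme and no-compound wells, and IC50 was the concentration halving radiolabel incorporation.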

The next series deals with human cyclin B-CDK1 (Homo sapiens, UniProt P06493). The series is described as follows: FlashPlate kinase assay, cyclin B-CDK1, Rb substrate. The note with it: recombinant cyclin B-CDK1, Rb phosphorylation, 1 μM ATP. The series is classed as biochemical. Summed up:
as §1

The target of another series is human cyclin E-CDK2 (Homo sapiens, UniProt P24941). The series is described as follows: FlashPlate kinase assay, cyclin E-CDK2, Rb substrate. The note with it: recombinant cyclin E-CDK2, Rb phosphorylation, 1 μM ATP. The series is classed as biochemical. Summed up: as §1
In series [1] the test system is HCT116, a colorectal carcinoma cell line. Kind of series: Tetrazolium dye proliferation assay (MTT assay). Format: cell-based. The note with it: Homo sapiens, HCT-116, HCT116 cells, inhibition of cell proliferation. Summed up: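 HCT116 cells in McCoy's 5A + 10% FCS, plated overnight, then dosed in duplicate with serial dilutions (final DMSO 0.3%) and incubated to growth-curve time points. MTT at 1 mg/ml for 2.5-3 h, formazan in ethanol, A570/650. IC50 by linear regression of log concentration vs % inhibition relative to blank and DMSO controls.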
(Tetrazolium dyes change colour on reduction, which living cells bring about.)

Chain of human cyclin B-CDK1 (P06493 whole entry): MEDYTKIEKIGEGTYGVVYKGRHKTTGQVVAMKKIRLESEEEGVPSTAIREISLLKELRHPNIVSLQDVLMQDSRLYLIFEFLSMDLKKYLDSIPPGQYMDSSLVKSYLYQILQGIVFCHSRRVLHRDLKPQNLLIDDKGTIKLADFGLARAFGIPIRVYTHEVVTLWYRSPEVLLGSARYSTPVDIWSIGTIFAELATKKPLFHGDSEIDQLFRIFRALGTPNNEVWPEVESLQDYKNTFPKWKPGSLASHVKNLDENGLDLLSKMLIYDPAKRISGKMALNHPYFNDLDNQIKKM
Chain of human cyclin B-CDK1 (P14635 whole entry partner): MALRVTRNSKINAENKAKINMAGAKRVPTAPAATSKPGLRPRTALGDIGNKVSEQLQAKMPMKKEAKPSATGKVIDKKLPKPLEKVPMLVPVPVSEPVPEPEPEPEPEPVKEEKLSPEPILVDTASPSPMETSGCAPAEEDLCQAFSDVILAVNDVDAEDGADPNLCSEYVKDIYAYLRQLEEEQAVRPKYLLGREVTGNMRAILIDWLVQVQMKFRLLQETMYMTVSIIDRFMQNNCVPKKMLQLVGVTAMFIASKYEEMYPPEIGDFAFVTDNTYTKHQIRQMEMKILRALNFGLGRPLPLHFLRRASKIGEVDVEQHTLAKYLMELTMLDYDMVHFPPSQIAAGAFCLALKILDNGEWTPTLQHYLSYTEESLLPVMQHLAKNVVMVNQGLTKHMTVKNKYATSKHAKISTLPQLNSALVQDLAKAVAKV
Chain of human cyclin D1-CDK4 (P11802 whole entry, the tested form may be a part): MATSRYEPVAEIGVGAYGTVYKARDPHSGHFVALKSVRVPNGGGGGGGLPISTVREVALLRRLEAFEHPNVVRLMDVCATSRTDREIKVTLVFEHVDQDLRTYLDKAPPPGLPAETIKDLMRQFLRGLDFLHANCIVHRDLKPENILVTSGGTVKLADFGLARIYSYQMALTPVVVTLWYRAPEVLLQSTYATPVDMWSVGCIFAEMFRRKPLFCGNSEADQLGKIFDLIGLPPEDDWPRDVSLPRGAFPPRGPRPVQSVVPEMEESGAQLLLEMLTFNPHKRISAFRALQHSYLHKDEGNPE
Chain of human cyclin D1-CDK4 (P24385 whole entry partner, the tested form may be a part): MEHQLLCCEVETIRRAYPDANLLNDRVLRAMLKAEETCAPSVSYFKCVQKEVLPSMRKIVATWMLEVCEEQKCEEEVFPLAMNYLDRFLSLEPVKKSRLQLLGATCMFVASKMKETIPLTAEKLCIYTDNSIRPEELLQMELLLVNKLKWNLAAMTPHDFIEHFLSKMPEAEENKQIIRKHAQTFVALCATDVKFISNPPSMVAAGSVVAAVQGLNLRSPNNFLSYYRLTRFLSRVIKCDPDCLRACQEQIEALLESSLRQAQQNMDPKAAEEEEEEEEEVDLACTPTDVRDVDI

The term IC50 denotes the point on the concentration scale where inhibition reaches its midpoint. As usually defined, the melting point is the temperature, or range, at which the solid turns liquid. The compound `COc1cccc(C(=O)c2sc(Nc3ccc(OCCn4ccnc4)cc3)nc2N)c1` [Example 146, [4-Amino-2-[4-(2-imidazol-1-yl-ethoxy)-phenylamino]-thiazol-5-yl]-(3-methoxy-phenyl)-methanone] showed a melting point of 185 to 190 °C. The IC50 at human cyclin D1-CDK4 was 67 nM. For the same compound, the IC50 at human cyclin B-CDK1 is 600 nM. Besides, the IC50 at human cyclin E-CDK2 worked out at 814 nM. It took 4190 nM to reach half-maximal inhibition in series [1] (IC50).

These data come from patent publication US6818663B2, “Diaminothiazoles” (Hoffmann-La Roches, priority 2002, dated 2004).
